Test results: ChEMBL document CHEMBL3885861, “Open TG-GATES”

Species: Rattus norvegicus
Assay: Open TG-GATES - Regimen: Daily Repeat
Assay type: toxicity, organism-based, Sprague-Dawley
Set-up: regimen Daily Repeat, gender Male, age 6 weeks
Conditions: in vivo, po, route gavage; for APTT / Bas / Eos / Fbg / Hb / Ht / Lym / MCH / MCHC / MCV / Mono / Neu / PT / Plat / RBC / Ret / WBC: tissue Blood; for KIDNEY_L / KIDNEY_R / KIDNEY_TOTAL: tissue Kidney; for LIVER: tissue Liver; for A/G / ALP / ALT / AST / BUN / CRE / Ca / Cl / DBIL / GLC / IP / K / LDH / Na / PL / RALB / TBIL / TC / TG / TP / gamma-GTP: tissue Plasma
[1] = 30 mg/kg, 72 h, dose level Middle, time 3 day
[2] = 30 mg/kg, […], dose level Middle, time 7 day
[3] = 30 mg/kg, […], dose level Middle, time 14 day
[4] = 30 mg/kg, […], dose level Middle, time 28 day
[5] = 100 mg/kg, 72 h, dose level High, time 3 day
[6] = 100 mg/kg, […], dose level High, time 7 day
[7] = 100 mg/kg, […], dose level High, time 14 day
[8] = 100 mg/kg, […], dose level High, time 28 day

NC(=O)N/N=C/c1ccc([N+](=O)[O-])o1 [NITROFURAZONE]
TERMINAL_BW [1]: 221 g
APTT [1]: 15.2 s
Bas [1]: 0%
Eos [1]: 0.8%
Fbg [1]: 285 mg/dL
Hb [1]: 12.7 g/dL
Ht [1]: 38.3%
Lym [1]: 78.8%
MCH [1]: 21.6 pg
MCHC [1]: 33.2%
MCV [1]: 65 fL
Mono [1]: 3.2%
Neu [1]: 16.6%
PT [1]: 14.2 s
Plat [1]: 119.4 x10_4/uL
RBC [1]: 589.8 x10_4/ul
Ret [1]: 8.5%
WBC [1]: 86.5 x10_2/uL
KIDNEY_L [1]: 1 g
KIDNEY_R [1]: 0.9 g
KIDNEY_TOTAL [1]: 1.9 g
LIVER [1]: 11.3 g
A/G [1]: 0.9
ALP [1]: 1653.2 IU/L
ALT [1]: 46.2 IU/L
AST [1]: 70 IU/L
BUN [1]: 15.4 mg/dL
CRE [1]: 0.2 mg/dL
Ca [1]: 11.4 mg/dL
Cl [1]: 104.2 meq/L
DBIL [1]: 0.016 mg/dL
GLC [1]: 182 mg/dL
IP [1]: 8 mg/dL
K [1]: 4.4 meq/L
LDH [1]: 113.2 IU/L
Na [1]: 140.6 meq/L
PL [1]: 164.4 mg/dL
RALB [1]: 2.5 g/dL
TBIL [1]: 0.048 mg/dL
TC [1]: 91.4 mg/dL
TG [1]: 98.6 mg/dL
TP [1]: 5.5 g/dL
gamma-GTP [1]: 1 IU/L
TERMINAL_BW [2]: 259.6 g
TERMINAL_BW [3]: 325.5 g
TERMINAL_BW [4]: 410.1 g
APTT [2]: 16.5 s
Bas [2]: 0%
Eos [2]: 1%
Fbg [2]: 267 mg/dL
Hb [2]: 13.2 g/dL
Ht [2]: 39.5%
Lym [2]: 76%
MCH [2]: 21.1 pg
MCHC [2]: 33.5%
MCV [2]: 63.1 fL
Mono [2]: 2.6%
Neu [2]: 20.2%
PT [2]: 14.3 s
Plat [2]: 120.3 x10_4/uL
RBC [2]: 625.8 x10_4/ul
Ret [2]: 7.3%
WBC [2]: 103.6 x10_2/uL
APTT [3]: 14.3 s
Bas [3]: 0%
Eos [3]: 0.8%
Fbg [3]: 308.8 mg/dL
Hb [3]: 13.5 g/dL
Ht [3]: 41.1%
Lym [3]: 81.8%
MCH [3]: 20.8 pg
MCHC [3]: 32.9%
MCV [3]: 63.2 fL
Mono [3]: 2.4%
Neu [3]: 14.2%
PT [3]: 14.4 s
Plat [3]: 117.9 x10_4/uL
RBC [3]: 650.8 x10_4/ul
Ret [3]: 6.1%
WBC [3]: 78.6 x10_2/uL
APTT [4]: 15.7 s
Bas [4]: 0.2%
Eos [4]: 1%
Fbg [4]: 294 mg/dL
Hb [4]: 14.3 g/dL
Ht [4]: 42.2%
Lym [4]: 82.8%
MCH [4]: 19.7 pg
MCHC [4]: 33.8%
MCV [4]: 58.2 fL
Mono [4]: 2%
Neu [4]: 13.6%
PT [4]: 14.3 s
Plat [4]: 99 x10_4/uL
RBC [4]: 727.8 x10_4/ul
Ret [4]: 4.2%
WBC [4]: 114.5 x10_2/uL
KIDNEY_L [2]: 1.1 g
KIDNEY_R [2]: 1.2 g
KIDNEY_TOTAL [2]: 2.3 g
KIDNEY_L [3]: 1.3 g
KIDNEY_R [3]: 1.3 g
KIDNEY_TOTAL [3]: 2.6 g
KIDNEY_L [4]: 1.6 g
KIDNEY_R [4]: 1.6 g
KIDNEY_TOTAL [4]: 3.3 g
LIVER [2]: 13.3 g
LIVER [3]: 17 g
LIVER [4]: 19 g
A/G [2]: 0.8
ALP [2]: 1619 IU/L
ALT [2]: 41 IU/L
AST [2]: 62.6 IU/L
BUN [2]: 13.8 mg/dL
CRE [2]: 0.2 mg/dL
Ca [2]: 11.2 mg/dL
Cl [2]: 103.6 meq/L
DBIL [2]: 0.016 mg/dL
GLC [2]: 181.8 mg/dL
IP [2]: 7.7 mg/dL
K [2]: 3.8 meq/L
LDH [2]: 90.2 IU/L
Na [2]: 141.8 meq/L
PL [2]: 155.8 mg/dL
RALB [2]: 2.6 g/dL
TBIL [2]: 0.048 mg/dL
TC [2]: 77.6 mg/dL
TG [2]: 117.4 mg/dL
TP [2]: 5.8 g/dL
gamma-GTP [2]: 1 IU/L
A/G [3]: 0.8
ALP [3]: 1501.8 IU/L
ALT [3]: 41.8 IU/L
AST [3]: 63.6 IU/L
BUN [3]: 18 mg/dL
CRE [3]: 0.2 mg/dL
Ca [3]: 11.1 mg/dL
Cl [3]: 103.6 meq/L
DBIL [3]: 0.014 mg/dL
GLC [3]: 193.4 mg/dL
IP [3]: 7.7 mg/dL
K [3]: 4.1 meq/L
LDH [3]: 89.8 IU/L
Na [3]: 142.2 meq/L
PL [3]: 169.2 mg/dL
RALB [3]: 2.8 g/dL
TBIL [3]: 0.05 mg/dL
TC [3]: 87.2 mg/dL
TG [3]: 107.6 mg/dL
TP [3]: 6.1 g/dL
gamma-GTP [3]: 1 IU/L
A/G [4]: 0.8
ALP [4]: 1102.6 IU/L
ALT [4]: 38 IU/L
AST [4]: 56.4 IU/L
BUN [4]: 16.4 mg/dL
CRE [4]: 0.2 mg/dL
Ca [4]: 10.7 mg/dL
Cl [4]: 103.2 meq/L
DBIL [4]: 0.012 mg/dL
GLC [4]: 182.4 mg/dL
IP [4]: 7.1 mg/dL
K [4]: 3.8 meq/L
LDH [4]: 43.2 IU/L
Na [4]: 142.8 meq/L
PL [4]: 163.8 mg/dL
RALB [4]: 2.8 g/dL
TBIL [4]: 0.076 mg/dL
TC [4]: 80.2 mg/dL
TG [4]: 104.4 mg/dL
TP [4]: 6.1 g/dL
gamma-GTP [4]: 1 IU/L
TERMINAL_BW [5]: 206.6 g
APTT [5]: 15 s
Bas [5]: 0%
Eos [5]: 1%
Fbg [5]: 297 mg/dL
Hb [5]: 12.7 g/dL
Ht [5]: 38.8%
Lym [5]: 83.6%
MCH [5]: 21.5 pg
MCHC [5]: 32.8%
MCV [5]: 65.6 fL
Mono [5]: 2.8%
Neu [5]: 11.6%
PT [5]: 14.6 s
Plat [5]: 102.7 x10_4/uL
RBC [5]: 593 x10_4/ul
Ret [5]: 7%
WBC [5]: 86.2 x10_2/uL
KIDNEY_L [5]: 0.9 g
KIDNEY_R [5]: 1 g
KIDNEY_TOTAL [5]: 1.9 g
LIVER [5]: 10.9 g
A/G [5]: 0.9
ALP [5]: 1305.8 IU/L
ALT [5]: 41.4 IU/L
AST [5]: 71.4 IU/L
BUN [5]: 16 mg/dL
CRE [5]: 0.2 mg/dL
Ca [5]: 11 mg/dL
Cl [5]: 104 meq/L
DBIL [5]: 0.016 mg/dL
GLC [5]: 176.4 mg/dL
IP [5]: 7.8 mg/dL
K [5]: 4.5 meq/L
LDH [5]: 67.6 IU/L
Na [5]: 141 meq/L
PL [5]: 154.8 mg/dL
RALB [5]: 2.6 g/dL
TBIL [5]: 0.068 mg/dL
TC [5]: 89.6 mg/dL
TG [5]: 66.8 mg/dL
TP [5]: 5.5 g/dL
gamma-GTP [5]: 1 IU/L
TERMINAL_BW [6]: 222.5 g
TERMINAL_BW [7]: 223.7 g
TERMINAL_BW [8]: 311.4 g
APTT [6]: 16 s
Bas [6]: 0%
Eos [6]: 0.8%
Fbg [6]: 271.8 mg/dL
Hb [6]: 13.2 g/dL
Ht [6]: 38.8%
Lym [6]: 85.2%
MCH [6]: 20.6 pg
MCHC [6]: 34.1%
MCV [6]: 60.3 fL
Mono [6]: 2.5%
Neu [6]: 10.2%
PT [6]: 14.5 s
Plat [6]: 106.2 x10_4/uL
RBC [6]: 643 x10_4/ul
Ret [6]: 5.5%
WBC [6]: 113.2 x10_2/uL
APTT [7]: 15.4 s
Bas [7]: 0.2%
Eos [7]: 0.8%
Fbg [7]: 318.8 mg/dL
Hb [7]: 14.1 g/dL
Ht [7]: 41.5%
Lym [7]: 86.8%
MCH [7]: 19.7 pg
MCHC [7]: 34%
MCV [7]: 57.9 fL
Mono [7]: 2.6%
Neu [7]: 8.8%
PT [7]: 15.1 s
Plat [7]: 121 x10_4/uL
RBC [7]: 720 x10_4/ul
Ret [7]: 3.8%
WBC [7]: 108.8 x10_2/uL
APTT [8]: 16.6 s
Bas [8]: 0.2%
Eos [8]: 1%
Fbg [8]: 368.6 mg/dL
Hb [8]: 13.9 g/dL
Ht [8]: 41.3%
Lym [8]: 85.8%
MCH [8]: 19.4 pg
MCHC [8]: 33.5%
MCV [8]: 57.9 fL
Mono [8]: 2.8%
Neu [8]: 9.2%
PT [8]: 14.3 s
Plat [8]: 107.6 x10_4/uL
RBC [8]: 714.8 x10_4/ul
Ret [8]: 3.8%
WBC [8]: 116.7 x10_2/uL
KIDNEY_L [6]: 1.1 g
KIDNEY_R [6]: 1 g
KIDNEY_TOTAL [6]: 2.1 g
KIDNEY_L [7]: 1.1 g
KIDNEY_R [7]: 1.1 g
KIDNEY_TOTAL [7]: 2.2 g
KIDNEY_L [8]: 1.5 g
KIDNEY_R [8]: 1.5 g
KIDNEY_TOTAL [8]: 3 g
LIVER [6]: 11.4 g
LIVER [7]: 10.8 g
LIVER [8]: 14.2 g
A/G [6]: 0.9
ALP [6]: 1211 IU/L
ALT [6]: 32.2 IU/L
AST [6]: 56.8 IU/L
BUN [6]: 14 mg/dL
CRE [6]: 0.2 mg/dL
Ca [6]: 11 mg/dL
Cl [6]: 102.5 meq/L
DBIL [6]: 0.015 mg/dL
GLC [6]: 162.2 mg/dL
IP [6]: 7.4 mg/dL
K [6]: 3.9 meq/L
LDH [6]: 55 IU/L
Na [6]: 141.2 meq/L
PL [6]: 146.8 mg/dL
RALB [6]: 2.6 g/dL
TBIL [6]: 0.055 mg/dL
TC [6]: 87 mg/dL
TG [6]: 39.5 mg/dL
TP [6]: 5.6 g/dL
gamma-GTP [6]: 1 IU/L
A/G [7]: 0.9
ALP [7]: 975.2 IU/L
ALT [7]: 27.2 IU/L
AST [7]: 86.4 IU/L
BUN [7]: 17.8 mg/dL
CRE [7]: 0.2 mg/dL
Ca [7]: 10.5 mg/dL
Cl [7]: 104.8 meq/L
DBIL [7]: 0.02 mg/dL
GLC [7]: 150.2 mg/dL
IP [7]: 7.9 mg/dL
K [7]: 3.7 meq/L
LDH [7]: 99.2 IU/L
Na [7]: 144 meq/L
PL [7]: 138.6 mg/dL
RALB [7]: 2.7 g/dL
TBIL [7]: 0.078 mg/dL
TC [7]: 92.6 mg/dL
TG [7]: 34.6 mg/dL
TP [7]: 5.9 g/dL
gamma-GTP [7]: 1.2 IU/L
A/G [8]: 0.8
ALP [8]: 579.8 IU/L
ALT [8]: 21 IU/L
AST [8]: 58.6 IU/L
BUN [8]: 14.8 mg/dL
CRE [8]: 0.2 mg/dL
Ca [8]: 10 mg/dL
Cl [8]: 103.4 meq/L
DBIL [8]: 0.016 mg/dL
GLC [8]: 144.6 mg/dL
IP [8]: 7.5 mg/dL
K [8]: 3.6 meq/L
LDH [8]: 51.2 IU/L
Na [8]: 144.6 meq/L
PL [8]: 149.6 mg/dL
RALB [8]: 2.8 g/dL
TBIL [8]: 0.096 mg/dL
TC [8]: 104.2 mg/dL
TG [8]: 36 mg/dL
TP [8]: 6.2 g/dL
gamma-GTP [8]: 1.2 IU/L
